Assay results: US10207030B2, “Implantable devices for bone or joint defects” (University of Utah Research Foundation, priority 2013, dated 2019)

Test system: S. aureus
Test: MIC of tobramycin (previously determined)
Type: cell-based
Conditions: Staphylococcus aureus

SMILES: NC[C@H]1O[C@H](O[C@H]2[C@H](O)[C@@H](O[C@H]3O[C@H](CO)[C@@H](O)[C@H](N)[C@H]3O)[C@H](N)C[C@@H]2N)[C@H](N)C[C@@H]1O [tobramycin]
- MIC: 4 µg/mL
